Experimental findings from patent US11912717B2 (Shenzhen Tenver Biopharm Co., Ltd., priority 2018, dated 2024) are described below.

The nature of the data set: Stability test (accelerated experiment, sealed PE/aluminum foil bags, 40±2° C., humidity 75±5%). The settings on record: for Purity by HPLC / Appearance / XRPD: 40±2° C., humidity 75±5%.

Description: X-ray powder diffractometer model: Rigaku D/max-2200 Cu target; operation condition: scanning speed, 4°/min, scanning step width, 0.01°.
High performance liquid chromatograph, Agilent1100; Chromatographic column: C18, 4.6 mm×250 mm; mobile phase, acetonitrile:0.1% phosphoric acid aqueous solution=65:35 (v:v); Detection wavelength: 240 nm; flow rate, 1.0 ml/min; Column temperature: 25° C.
The bags were electrothermally sealed, and then placed into aluminum foil bags which were also electrothermally sealed.

Consider “tenvermectin B [crystal form I of tenvermectin B]”, for which the “Purity by HPLC” value runs as follows: (first month) 99.0; (initial data) 99.1; (second month) 99.1; (sixth month) 98.9; (third month) 98.9. For the same substance, the Appearance entry is, setting by setting: (first month, cell wraps: White / crystalline / powder) “White”; (initial data, cell wraps over 3 lines: White / crystalline / powder) “White”; (second month, cell wraps: White / crystalline / powder) “White”; (sixth month, cell wraps: White / crystalline / powder) “White”; (third month, cell wraps: White / crystalline / powder) “White”. Besides, the XRPD result is, setting by setting: (first month, cell wraps: crystal / form I) “crystal”; (initial data, cell wraps over 2 lines: crystal / form I) “crystal”; (second month, cell wraps: crystal / form I) “crystal”; (sixth month, cell wraps: crystal / form I) “crystal”; (third month, cell wraps: crystal / form I) “crystal”. For the same substance, the “crystal transformation phenomenon in the stability experiment” value (stability experiment) is “does not occur”.
